Our source for the GI50 and TGI values is PubChem BioAssay (NCI).

Molecules are shown by their SMILES. Several values for one entry are separate records, joined by “and”; a condition that tells them apart may be missing. Equal values may be shown once.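 Cells were grown in 96-well plates and exposed to each compound for 48 hours at five concentrations; endpoints were interpolated linearly between bracketing concentrations, or set to the highest concentration if not reached. Here, GI50 denotes the concentration required for 50% inhibition of growth. TGI is the concentration that stops growth completely.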

Test in all cases: inhibition of tumour cell growth, NCI panel, 48 h
Experiment [1] concerns PC-3 prostate.
Experiment [2] relates to RPMI-8226 leukemia.
The subject of experiment [3] is DU-145 prostate.
Experiment [4] has as its system MCF7 breast.
The test system of experiment [5] is HOP-92 NSCLC.
The test system of experiment [6] is EKVX NSCLC.
The subject of experiment [7] is HCT-116 colon.
For experiment [8], the system named is OVCAR-4 ovarian.
The test system of experiment [9] is CCRF-CEM leukemia.
Experiment [10] deals with NCI-H226 lung.

For `CC1=C(C#N)C23C(=O)N(c4ccccc4)C(=O)C2=C(O)C=CC3(O)N1Cc1ccc(Cl)cc1Cl` (stereo unspecified), the GI50 in experiment [1] was 4.68 µM; in [2], 1.63 µM; in experiment [3] it was 2.7 µM; in experiment [4] it was 2.12 µM; in experiment [5], 3.02 µM; in [6], 9.43 µM. The GI50 in experiment [7] was 1.73 µM; in experiment [8] it was 6.36 µM; in [9], 1.59 µM; in experiment [10], 2.54 µM. Moreover, the TGI in experiment [1] is 17.1 µM; in [2], 4.22 µM; in experiment [3], 11.6 µM; in experiment [4], 13.3 µM; in experiment [5] it was 13.3 µM; in experiment [6], 21.3 µM. In addition, the TGI in [7] was 3.45 µM; in experiment [8], 19.6 µM; in experiment [9], 4.28 µM; in experiment [10] it was 9.96 µM.

With `Cn1ncc(Cl)c1-c1cc(C(=O)N[C@H](CN)Cc2cccc(F)c2)sc1Cl`, the GI50 in experiment [1] was 0.32 µM and 0.554 µM; in experiment [2], 1.65 µM and 2.06 µM; in experiment [3] it was 2.28 µM and 5.86 µM; in experiment [5], 0.338 µM and 0.519 µM; in experiment [6], 3.24 µM; in experiment [7] it was 1.27 µM and 2.84 µM. The GI50 in experiment [8] is 4.9 µM and 6.33 µM; in experiment [9], 0.349 µM and 0.294 µM; in [10], > 4.48 µM and 11.6 µM. The TGI was > 5.56 µM and 10.2 µM in [1]; 5.8 µM and 6.11 µM in experiment [2]; > 10 µM and 19.4 µM in experiment [3]; 2.6 µM and 11.4 µM in [4]; 2.77 µM and 4.21 µM in experiment [5]; more than 10 µM in [6]. The TGI in experiment [7] was > 5.17 µM and 13.6 µM; in experiment [8], > 10 µM and 19.3 µM; in experiment [9] it was > 10 µM and 10.5 µM; in [10], > 10 µM and 32.2 µM.

On to `O=C(c1c(F)c(F)c(F)c(F)c1F)c1c(F)c(F)c(F)c(F)c1F`, for which the TGI was found to be 3.39 µM in experiment [1]; 4.71 µM in experiment [2]; 4.64 µM in [3]; 2.58 µM in experiment [4]; 3.43 µM in [5]; 4.06 µM in experiment [6]. The TGI in experiment [7] was determined as 2.96 µM; in experiment [8] it was 3.14 µM; in [9], 1.15 µM; in experiment [10], 8.96 µM.

With `COc1cc2nc(N3CCCN(C)CC3)nc(NC3CCN(Cc4ccccc4)CC3)c2cc1OC`, the GI50 was 4.4 µM in experiment [1]; 2.31 µM in experiment [2]; 2.86 µM in experiment [3]; 2.08 µM in experiment [4]; 4.12 µM in experiment [5]; 3.83 µM in experiment [6]. In addition, the GI50 is 2.24 µM in [7], 1.81 µM in [8], 2.37 µM in experiment [9] and 2.68 µM in experiment [10]. Besides, the TGI stood at 20.1 µM in experiment [1]; 6.18 µM in experiment [2]; 9.38 µM in [3]; 7.65 µM in experiment [4]; 13.6 µM in experiment [5]; 13.9 µM in experiment [6]. Further, the TGI is 6.19 µM in experiment [7], 4.79 µM in [8], more than 24.6 µM in experiment [9] and 9.08 µM in experiment [10].

As to `COc1ccc2c(c1)CCC1C2CC[C@@]2(C)C1CC[C@@H]2NC(=O)Cc1ccc(O)c(O)c1` (stereo partly specified), the GI50 is 6.3 µM in experiment [1]; 3.68 µM in experiment [2]; 8.47 µM in experiment [3]; 11.2 µM in [4]; 14.2 µM in [5]; 13.5 µM in experiment [6]. Also, the GI50 in [7] was 3.53 µM; in experiment [8], 4.26 µM; in [9], 2.86 µM; in experiment [10], 10.1 µM. Besides, the TGI in [1] is 19.4 µM; in experiment [2], more than 100 µM; in experiment [3], 20.8 µM; in [4], 32.1 µM; in experiment [5] it was 30.8 µM; in experiment [6] it was 31.4 µM. Further, the TGI turned out to be 18.9 µM in experiment [7], 18.6 µM in experiment [8], 17.6 µM in [9] and 35.3 µM in experiment [10].

As for `COc1ccccc1C#Cc1ccccc1C#Cc1ccc(OCCCCCCOc2ccccc2C#Cc2ccccc2C#Cc2ccccc2OC)cc1`, the GI50 in experiment [1] is more than 100 µM; in experiment [2], more than 100 µM; in [3], more than 100 µM; in experiment [4], more than 100 µM; in experiment [5], 90.1 µM; in experiment [6], more than 100 µM. Moreover, the GI50 in experiment [7], in experiment [8], in experiment [9] and in experiment [10] was more than 100 µM throughout. Further, the TGI in experiment [1], in experiment [2], in [3], in experiment [4], in [5] and in experiment [6] was more than 100 µM each time. The TGI in experiment [7], in experiment [8], in [9] and in experiment [10] was more than 100 µM each time.

As for `Cc1ccc2c(C(C[N+](=O)[O-])c3ccccc3)c(-c3ccccc3)[nH]c2c1` (stereo unspecified), the GI50 was 20.9 µM in [1]; 36.8 µM in [2]; 34 µM in [3]; 13.5 µM in experiment [4]; 11.8 µM in experiment [5]; 75.9 µM in experiment [6]. The GI50 was 30.2 µM in [7], 42.4 µM in experiment [8], 25.2 µM in experiment [9] and 62.4 µM in experiment [10]. In addition, the TGI in [1], in [2], in experiment [3], in [4], in experiment [5] and in experiment [6] was more than 95 µM each time. Besides, the TGI in experiment [7], in [8], in experiment [9] and in experiment [10] was more than 95 µM in each case.

Regarding `NC(=O)c1cc(N2CC2)c([N+](=O)[O-])cc1[N+](=O)[O-]`, the TGI is more than 200 µM in experiment [1]; more than 200 µM in [2]; more than 200 µM in [3]; more than 63.2 µM in experiment [4]; more than 200 µM in [5]; more than 200 µM in experiment [6]. For the same compound, the TGI in experiment [7], in experiment [8], in [9] and in experiment [10] was more than 200 µM in each case. The GI50 in experiment [2], in experiment [5], in [6], in experiment [7], in experiment [8] and in experiment [9] was more than 200 µM throughout. For the same compound, the GI50 in [10] was more than 200 µM.
